According to patent publication US20250235543A1, “MODIFIED PROTEINS AND PROTEIN DEGRADERS” (Cullgen (Shanghai), Inc., priority 2021, published 2025):
Where two headings read alike, the source gives them in different places.

Experiments:
cyclin D1 = experiment: Cyclin D1 percentage degradation in Calu-1 cells (immunoblotting); assay type: cell-based; settings: 16 hours
Outline: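 Cells were rinsed once in cold PBS and lysed in cold RIPA buffer containing protease and phosphatase inhibitors, with gentle agitation at 4° C. for 30 min. Lysates were spun at 13,000 rpm for 10 min at 4° C., protein was measured by BCA, and samples were boiled in Laemmli buffer at 99° C. for 5 min before SDS-PAGE immunoblotting.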

CDK4 = target: T1, CDK4 (Homo sapiens, UniProt P11802); experiment: CDK4 percentage degradation in Calu-1 cells (immunoblotting); assay type: cell-based; settings: for inhibition at 0.2 µM: read-out: CDK4 Degradation (200 nM)
T1 construct: endogenous in cells; host or cells: Calu-1
Outline: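 Cultured cells were rinsed once in cold PBS and lysed in cold RIPA buffer containing protease and phosphatase inhibitors, with gentle agitation at 4° C. for 30 min. Lysates were centrifuged at 13,000 rpm for 10 min at 4° C., and protein was quantified by BCA. Samples were then separated by SDS-PAGE, detected with ECL, and the CDK4 bands quantified in Image Lab.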

T1 sequence (P11802 2-303 limits assumed): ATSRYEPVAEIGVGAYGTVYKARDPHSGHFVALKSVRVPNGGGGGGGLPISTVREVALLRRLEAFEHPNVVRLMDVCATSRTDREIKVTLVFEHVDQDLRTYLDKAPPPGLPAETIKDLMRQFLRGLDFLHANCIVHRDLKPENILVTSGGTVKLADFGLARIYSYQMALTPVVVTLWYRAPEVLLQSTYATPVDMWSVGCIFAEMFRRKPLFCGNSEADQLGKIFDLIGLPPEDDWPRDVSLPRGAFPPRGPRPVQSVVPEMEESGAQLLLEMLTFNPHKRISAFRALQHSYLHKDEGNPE
T1 sequence (P24385 whole entry partner): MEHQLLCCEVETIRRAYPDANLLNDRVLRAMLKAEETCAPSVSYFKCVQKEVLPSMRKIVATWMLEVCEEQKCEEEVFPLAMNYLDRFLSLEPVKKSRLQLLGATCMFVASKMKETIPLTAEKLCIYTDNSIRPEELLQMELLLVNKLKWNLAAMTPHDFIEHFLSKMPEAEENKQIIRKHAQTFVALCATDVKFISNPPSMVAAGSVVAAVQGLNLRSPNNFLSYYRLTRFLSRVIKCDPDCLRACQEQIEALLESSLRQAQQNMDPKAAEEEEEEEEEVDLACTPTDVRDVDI
T1 sequence (Q16531 2-1140 limits assumed, further chain): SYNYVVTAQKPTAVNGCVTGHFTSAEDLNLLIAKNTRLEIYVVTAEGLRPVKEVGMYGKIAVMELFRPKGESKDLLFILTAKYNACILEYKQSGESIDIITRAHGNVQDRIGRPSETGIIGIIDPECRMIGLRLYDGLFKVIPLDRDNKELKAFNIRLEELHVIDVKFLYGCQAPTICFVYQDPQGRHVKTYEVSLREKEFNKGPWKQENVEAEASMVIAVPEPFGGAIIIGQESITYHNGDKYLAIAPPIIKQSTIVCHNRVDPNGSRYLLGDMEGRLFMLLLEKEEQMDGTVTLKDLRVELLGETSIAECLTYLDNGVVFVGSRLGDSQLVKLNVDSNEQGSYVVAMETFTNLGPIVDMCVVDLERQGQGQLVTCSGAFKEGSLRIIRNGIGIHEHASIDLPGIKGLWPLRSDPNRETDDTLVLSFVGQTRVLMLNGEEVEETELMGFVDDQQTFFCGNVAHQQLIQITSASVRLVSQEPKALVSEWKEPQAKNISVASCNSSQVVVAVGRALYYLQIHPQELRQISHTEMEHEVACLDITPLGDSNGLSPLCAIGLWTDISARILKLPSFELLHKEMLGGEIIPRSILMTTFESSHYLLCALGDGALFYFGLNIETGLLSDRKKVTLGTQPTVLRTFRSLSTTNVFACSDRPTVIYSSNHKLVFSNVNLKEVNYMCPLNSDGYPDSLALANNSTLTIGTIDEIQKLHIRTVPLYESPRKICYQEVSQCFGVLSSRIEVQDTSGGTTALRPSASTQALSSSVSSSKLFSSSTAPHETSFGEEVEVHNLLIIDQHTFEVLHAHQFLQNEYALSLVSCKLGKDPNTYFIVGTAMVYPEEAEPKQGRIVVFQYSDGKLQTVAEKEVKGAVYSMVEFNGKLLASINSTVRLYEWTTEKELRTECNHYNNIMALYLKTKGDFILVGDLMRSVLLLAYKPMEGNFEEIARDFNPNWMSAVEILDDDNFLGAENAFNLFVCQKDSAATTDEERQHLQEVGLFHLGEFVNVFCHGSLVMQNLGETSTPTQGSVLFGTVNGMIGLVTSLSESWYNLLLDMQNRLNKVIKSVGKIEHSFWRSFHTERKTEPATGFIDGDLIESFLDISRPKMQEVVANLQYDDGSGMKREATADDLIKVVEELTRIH

Structure (SMILES) | inhibition at 0.2 µM (CDK4; Calu-1 cells, 200 nM, 16 hours) [%] | inhibition at 10 µM (CDK4; Calu-1 cells, 10 μM, 16 hours, read-out: CDK4 Degradation (10 μM)) [%] | CyclinD1 Degradation (200 nM) (cyclin D1) | inhibition at 0.2 µM (CDK4; Calu-1, 16 h) [%] | CyclinD1 Degradation (10 μM) (cyclin D1; 10 μM)
CC(=O)c1c(C)c2cnc(Nc3ccc(N4CCN(CC(=O)NCCOCCOCCC(=O)NC5CCCCC5C(=O)Nc5nc(C)c(C)s5)CC4)cn3)nc2n(C2CCCC2)c1=O (centres unmarked) [CPD-179, 2-(3-(2-(2-(2-(4-(6-((6-Acetyl-8-cyclopentyl-5-methyl-7-oxo-7,8-dihydropyrido[2,3-d]pyrimidin-2-yl)amino)pyridin-3-yl)piperazin-1-yl)acetamido)ethoxy)ethoxy)propanamido)-N-(4,5-dimethylthiazol-2-yl)cyclohexane-1-carboxamide] | < 30 |  | D (protein percentage degradation <30%) |  | 
CC(=O)c1c(C)c2cnc(Nc3ccc(N4CCN(C(=O)CCOCCC(=O)Nc5ccccc5C(=O)Nc5nc(C)c(C)s5)CC4)cn3)nc2n(C2CCCC2)c1=O [CPD-181, 2-(3-(3-(4-(6-((6-Acetyl-8-cyclopentyl-5-methyl-7-oxo-7,8-dihydropyrido[2,3-d]pyrimidin-2-yl)amino)pyridin-3-yl)piperazin-1-yl)-3-oxopropoxy)propanamido)-N-(4,5-dimethylthiazol-2-yl)benzamide] |  |  | D (protein percentage degradation <30%) | < 30 | 
CC(=O)c1c(C)c2cnc(Nc3ccc(N4CCN(C(=O)CCOCCOCCOCCOCCOCCOCCC(=O)Nc5ccccc5C(=O)Nc5nc(C)c(C)s5)CC4)cn3)nc2n(C2CCCC2)c1=O [CPD-182, 22-(4-(6-((6-Acetyl-8-cyclopentyl-5-methyl-7-oxo-7,8-dihydropyrido[2,3-d]pyrimidin-2-yl)amino)pyridin-3-yl)piperazin-1-yl)-N-(2-((4,5-dimethylthiazol-2-yl)carbamoyl)phenyl)-22-oxo-4,7,10,13,16,19-hexaoxadocosanamide] |  |  | D (protein percentage degradation <30%) | < 30 | 
CC(=O)c1c(C)c2cnc(Nc3ccc(N4CCN(CCCCCCCC(=O)Nc5ccccc5C(=O)Nc5ccc(C)cn5)CC4)cn3)nc2n(C2CCCC2)c1=O [CPD-183, 2-(8-(4-(6-((6-Acetyl-8-cyclopentyl-5-methyl-7-oxo-7,8-dihydropyrido[2,3-d]pyrimidin-2-yl)amino)pyridin-3-yl)piperazin-1-yl)octanamido)-N-(5-methylpyridin-2-yl)benzamide] |  |  | D (protein percentage degradation <30%) | < 30 | 
CC(=O)c1c(C)c2cnc(Nc3ccc(N4CCN(CC(=O)NCCOCCOCCC(=O)Nc5ccccc5C(=O)Nc5ccc(C6CC6)cn5)CC4)cn3)nc2n(C2CCCC2)c1=O [CPD-184, 2-(3-(2-(2-(2-(4-(6-((6-Acetyl-8-cyclopentyl-5-methyl-7-oxo-7,8-dihydropyrido[2,3-d]pyrimidin-2-yl)amino)pyridin-3-yl)piperazin-1-yl)acetamido)ethoxy)ethoxy)propanamido)-N-(5-cyclopropylpyridin-2-yl)benzamide] | 50 to 80 |  | A (protein percentage degradation >=80%) |  | 
CC(=O)c1c(C)c2cnc(Nc3ccc(N4CCN(CCNCCOCCOCCC(=O)Nc5ccccc5C(=O)Nc5nc(C)c(C)s5)CC4)cn3)nc2n(C2CCCC2)c1=O [CPD-187, 2-(3-(2-(2-((2-(4-(6-((6-Acetyl-8-cyclopentyl-5-methyl-7-oxo-7,8-dihydropyrido[2,3-d]pyrimidin-2-yl)amino)pyridin-3-yl)piperazin-1-yl)ethyl)amino)ethoxy)ethoxy)propanamido)-N-(4,5-dimethylthiazol-2-yl)benzamide] |  |  | D (protein percentage degradation <30%) | < 30 | 
CC(=O)c1c(C)c2cnc(Nc3ccc(N4CCN(CCNCCCCCCCNc5cccc(C(=O)Nc6nc(C)c(C)s6)c5C)CC4)cn3)nc2n(C2CCCC2)c1=O [CPD-188, 3-((7-((2-(4-(6-((6-Acetyl-8-cyclopentyl-5-methyl-7-oxo-7,8-dihydropyrido[2,3-d]pyrimidin-2-yl)amino)pyridin-3-yl)piperazin-1-yl)ethyl)amino)heptyl)amino)-N-(4,5-dimethylthiazol-2-yl)-2-methylbenzamide] |  |  | D (protein percentage degradation <30%) | < 30 | 
CC(=O)c1c(C)c2cnc(Nc3ccc(N4CCN(CCCCCOCCOCCNc5cccc(C(=O)Nc6nc(C)c(C)s6)c5C)CC4)cn3)nc2n(C2CCCC2)c1=O [CPD-271, 3-((2-(2-((5-(4-(6-((6-Acetyl-8-cyclopentyl-5-methyl-7-oxo-7,8-dihydropyrido[2,3-d]pyrimidin-2-yl)amino)pyridin-3-yl)piperazin-1-yl)pentyl)oxy)ethoxy)ethyl)amino)-N-(4,5-dimethylthiazol-2-yl)-2-methylbenzamide] |  |  | D (protein percentage degradation <30%) | < 30 | 
Cc1nc(NC(=O)c2ccccc2NC(=O)CNC(=O)CN2CCN(Cc3ccc(Nc4ncc(F)c(-c5cc(F)c6nc(C)n(C(C)C)c6c5)n4)nc3)CC2)sc1C [CPD-272, N-(4,5-Dimethylthiazol-2-yl)-2-(2-(2-(4-((6-((5-fluoro-4-(4-fluoro-1-isopropyl-2-methyl-1H-benzo[d]imidazol-6-yl)pyrimidin-2-yl)amino)pyridin-3-yl)methyl)piperazin-1-yl)acetamido)acetamido)benzamide] |  | < 30 |  |  | D (protein percentage degradation < 30%)

Further lines, with some results ahead:

inhibition at 0.2 µM (CDK4; Calu-1 cells, 200 nM, 16 hours) [%] | inhibition at 10 µM (CDK4; Calu-1 cells, 10 μM, 16 hours, read-out: CDK4 Degradation (10 μM)) [%] | Structure (SMILES) | CyclinD1 Degradation (200 nM) (cyclin D1) | inhibition at 0.2 µM (CDK4; Calu-1, 16 h) [%] | CyclinD1 Degradation (10 μM) (cyclin D1; 10 μM)
< 30 |  | CC(=O)c1c(C)c2cnc(Nc3ccc(N4CCN(CC(=O)NCC(=O)Nc5ccccc5C(=O)Nc5nc(C)c(C)s5)CC4)cn3)nc2n(C2CCCC2)c1=O [CPD-180, 2-(2-(2-(4-(6-((6-Acetyl-8-cyclopentyl-5-methyl-7-oxo-7,8-dihydropyrido[2,3-d]pyrimidin-2-yl)amino)pyridin-3-yl)piperazin-1-yl)acetamido)acetamido)-N-(4,5-dimethylthiazol-2-yl)benzamide] | D (protein percentage degradation <30%) |  | 
> 80 |  | CC(=O)c1c(C)c2cnc(Nc3ccc(N4CCN(CC(=O)NCCOCCOCCC(=O)Nc5ccccc5C(=O)Nc5ccc(N(C)C)nn5)CC4)cn3)nc2n(C2CCCC2)c1=O [CPD-185, 2-(3-(2-(2-(2-(4-(6-((6-Acetyl-8-cyclopentyl-5-methyl-7-oxo-7,8-dihydropyrido[2,3-d]pyrimidin-2-yl)amino)pyridin-3-yl)piperazin-1-yl)acetamido)ethoxy)ethoxy)propanamido)-N-(6-(dimethylamino)pyridazin-3-yl)benzamide] | A (protein percentage degradation >=80%) |  | 
50 to 80 |  | CC(=O)c1c(C)c2cnc(Nc3ccc(N4CCN(CC(=O)NCCOCCOCCC(=O)Nc5ccccc5C(=O)Nc5cnc(C)nc5)CC4)cn3)nc2n(C2CCCC2)c1=O [CPD-186, 2-(3-(2-(2-(2-(4-(6-((6-Acetyl-8-cyclopentyl-5-methyl-7-oxo-7,8-dihydropyrido[2,3-d]pyrimidin-2-yl)amino)pyridin-3-yl)piperazin-1-yl)acetamido)ethoxy)ethoxy)propanamido)-N-(2-methylpyrimidin-5-yl)benzamide] | B (protein percentage degradation <80%, and >=50%) |  | 
50 to 80 |  | CC(=O)c1c(C)c2cnc(Nc3ccc(N4CCN(CC(=O)NCCOCCOCCCNc5ccccc5C(=O)Nc5nc(C)c(C)s5)CC4)cn3)nc2n(C2CCCC2)c1=O [CPD-267, 2-((3-(2-(2-(2-(4-(6-((6-Acetyl-8-cyclopentyl-5-methyl-7-oxo-7,8-dihydropyrido[2,3-d]pyrimidin-2-yl)amino)pyridin-3-yl)piperazin-1-yl)acetamido)ethoxy)ethoxy)propyl)amino)-N-(4,5-dimethylthiazol-2-yl)benzamide] | A (protein percentage degradation >=80%) |  | 
50 to 80 |  | CC(=O)c1c(C)c2cnc(Nc3ccc(N4CCN(CC(=O)NCCCCCCCCCNc5ccccc5C(=O)Nc5nc(C)c(C)s5)CC4)cn3)nc2n(C2CCCC2)c1=O [CPD-268, 2-((9-(2-(4-(6-((6-Acetyl-8-cyclopentyl-5-methyl-7-oxo-7,8-dihydropyrido[2,3-d]pyrimidin-2-yl)amino)pyridin-3-yl)piperazin-1-yl)acetamido)nonyl)amino)-N-(4,5-dimethylthiazol-2-yl)benzamide] | A (protein percentage degradation >=80%) |  | 
50 to 80 |  | CC(=O)c1c(C)c2cnc(Nc3ccc(N4CCN(CC(=O)NCCCCC(=O)Nc5ccccc5C(=O)Nc5ccc(C)cn5)CC4)cn3)nc2n(C2CCCC2)c1=O [CPD-269, 2-(5-(2-(4-(6-((6-Acetyl-8-cyclopentyl-5-methyl-7-oxo-7,8-dihydropyrido[2,3-d]pyrimidin-2-yl)amino)pyridin-3-yl)piperazin-1-yl)acetamido)pentanamido)-N-(5-methylpyridin-2-yl)benzamide] | B (protein percentage degradation <80%, and >=50%) |  | 
50 to 80 |  | CC(=O)c1c(C)c2cnc(Nc3ccc(N4CCN(CC(=O)NCCOCCOCCC(=O)Nc5ccccc5C(=O)Nc5ccc(C)c(C6CC6)n5)CC4)cn3)nc2n(C2CCCC2)c1=O [CPD-270, 2-(3-(2-(2-(2-(4-(6-((6-Acetyl-8-cyclopentyl-5-methyl-7-oxo-7,8-dihydropyrido[2,3-d]pyrimidin-2-yl)amino)pyridin-3-yl)piperazin-1-yl)acetamido)ethoxy)ethoxy)propanamido)-N-(6-cyclopropyl-5-methylpyridin-2-yl)benzamide] | A (protein percentage degradation >=80%) |  | 
